Source: article PMC5772648, “Targeted NUDT5 inhibitors block hormone signaling in breast cancer cells” (Nature Communications, 2018)
Several values for one entry are separate records, joined by “and”; a condition that tells them apart may be missing. Equal values may be shown once.

Tests used:
human NUDT5 = target: T1, human NUDT5 (Homo sapiens, UniProt Q9UKK9); experiment: enzyme-coupled malachite green assay (MG assay), ADPR hydrolysis; type: biochemical; settings: NUDT5, ADPR substrate; read-out: MG assay IC50 (Biochemical IC50)
T1 construct: His-tag (N); made in house; host or cells: E. coli BL21 (DE3) R3 pRARE2
Excerpt: We next sought to develop small molecule NUDT5 inhibitors to further probe the role of NUDT5 in ADPR metabolism. A high-throughput, screening-compatible NUDT5 inhibition assay was established using slight modifications to the aforementioned MG procedure (Fig. 2a)[15],[27]. Briefly, ADPR, NUDT5 and calf intestinal alkaline phosphatase (CIP) were combined in a coupled enzymatic assay, as described in the online methods. In turn, ADPR was hydrolyzed to AMP and R5P by NUDT5, and the released R5P was further degraded to ribose and inorganic phosphate (Pi) by CIP. Free Pi was subsequently detected using the malachite green reagent. The screen was conducted using a combination of the Chemical Biology Consortium of Sweden (CBCS) primary screening set and several commercial libraries from Enamine, TimTec, Maybridge and ChemDiv. In total, ~72 000 distinct chemical entities were screened for their potential inhibition of NUDT5 at a concentration of 10 µM (Supplementary Table 1, Supplementary Fig. 2a, b). Execution of this screening campaign was split between two different occasions. The screening performance in the two screening campaigns was excellent (average z´ factors of 0.87 and 0.85, Supplementary Fig. 2c), resulting in a hit limit as defined by the average and three standard deviations of the library compound responses of 10.1 and 18.4% inhibition, respectively (Supplementary Table 1, Supplementary Fig. 2a, b). This translated to 53 and 475 hits (0.3 and 0.8% hit rate, respectively), yielding 528 total hits from the 2 separate screening occasions.
Activity of NUDT5 and MTH1 with a panel of potential substrates [2-OH-ATP, 2-OH-dATP, 8-oxo-dGDP, GDP and 8-oxo-GTP (Jena Biosciences), 8-oxo-dGTP (TriLink Biotechnologies), dATP (ThermoFisher Scientific), dGTP, GTP and ADPR (Sigma-Aldrich)] was assessed in reaction buffer (100 mM Tris Acetate pH 7.5, 40 mM NaCl, 10 mM Mg Acetate) at 22 °C. For ADPR, alkaline phosphatase from bovine intestinal mucosa (10 U/ml; Sigma-Aldrich) was added as coupled enzyme, while other substrates were coupled to E. coli pyrophosphatase (0.2 U/mL, Sigma-Aldrich). After 30 min incubation with shaking, formed inorganic phosphate was detected by addition of malachite green reagent. Absorbance at 630 nm was read after 15 min incubation with shaking using a Hidex Sense plate reader. The potency of NUDT5 inhibitors was assessed similarly as above (and in the screening campaign) by monitoring ADPR hydrolysis; details are in the Supplementary Information.
Small molecule library composition
The screen for NUDT5 inhibitors was conducted at Chemical Biology Consortium Sweden (www.cbcs.se). Two screening campaigns completed in August 2012 and in March 2013 respectively comprised a combination of in-house and commercially available libraries, amounting to a total of 75679 compounds. The commercial compounds originate from Enamine, TimTec, MayBridge and ChemDiv. The in-house libraries were donated by Biovitrum AB, Sweden (the origin and composition is described previously)2. For long-term storage, the compounds are kept frozen at - 20°C as 10 mM solutions in dimethyl sulfoxide (DMSO) under low humidity conditions in REMP 96 Storage Tube Racks in a REMP Small-Size Store™. To facilitate screening an aliquot of the stock solutions have been transferred to Labcyte 384 LDV plates (LP-0200) to enable dispensing using an Echo 550™ acoustic liquid handler (LabCyte). For both screening campaigns 40 nl of the compound solutions were dispensed directly into columns 1-22 of the 384-well assay plates (Nunc 242757), while columns 23 and 24 were reserved for controls as outlined below. The plates were sealed with a Peelable Aluminium seal (Agilent 24210-001) using a PlateLoc thermal microplate sealer (Agilent) and kept at room temperature until used. The final compound concentration in the screen was 10 µM with a final DMSO concentration of […]
Enzymatic assay applied for screening and hit confirmation […]

U-2 OS cells = experiment: DNA damage signaling by immunofluorescence (γH2A.X, 53BP1, RPA); type: cell-based; settings: 10 µM, 72 h
Method: Following siRNA knockdown for 48 h, 10 000 U-2 OS cells were seeded per well in black, clear-bottomed 96-well plates (BD Falcon) and allowed to grow for an additional 48 h. For inhibitor treatment experiments, cells were plated at 2000 per well and 10 µM TH5427 was added the following day for an additional 72 h. Cells were washed with PBS and then fixed with 4% paraformaldehyde in PBS (Santa Cruz) with 0.5% Triton X-100 for 15 min. Primary antibodies were γH2A.X (Millipore, 1:1000 or Cell Signaling, 1:1000), 53BP1 (Bethyl, 1:1000 or Abcam, 1:500) and RPA32 (Cell Signaling, 1:1000) diluted in 3% BSA/PBS and incubated at 4 °C overnight. Alexa Fluor secondary antibodies (ThermoFisher) were used at 1:1000 diluted in 3% BSA/PBS for 1 h at room temperature. DNA was counterstained with DAPI and plates were visualized using an ImageXpress high-throughput microscope (Molecular Devices) with 20x objective. Image analysis was performed with CellProfiler software (Broad Institute).

Compound CCN1CCN(c2nc3c(c(=O)n(C)c(=O)n3C)n2Cc2nnc(-c3ccc(Cl)c(Cl)c3)o2)CC1 [TH5424] has an IC50 (human NUDT5) of 39 nM.

With Cn1c(=O)c2c(nc(N3CCNCC3)n2Cc2nnc(-c3ccc(Cl)c(Cl)c3)o2)n(C)c1=O [TH5427] the “DNA damage signaling” value (U-2 OS cells) was “neither induced significant DNA damage signaling” and the IC50 (human NUDT5) was 29.1 nM and 29 nM.
